{"source": "patent US12116637B2", "about": "“Compositions and methods for detecting and treating high grade subtypes of uterine cancer” (The Regents of the University of Michigan, priority 2020, dated 2024)", "tested_on": "UT42^Aα-P179R, OV17R^Aα-S256F and UT89^AαKO isogenic cell models", "assay": "Cleaved caspase 3 immunoblot", "format": "cell-based, human", "conditions": "72 hours", "from_the_text": "To validate whether these recurrent scaffold mutations were driving the differential response to RNR inhibitors, we sought to correct these mutations using CRISPR/Cas9, but were unable to do so, likely as a result of low efficiency of homologous recombination and the dependency of this cell line on this mutation. Therefore, to expand our model systems and validate our results, we used two additional cell models (FIG. 4A-C). The first was OV17R cells, which harbor a heterozygous Aα-S256F mutation (OV17R^Aα-S256F). OV17R^Aα-S256F cells were stably transduced to express EGFP (control) or wild type Aα (mutational correction) (FIG. 4A). […] UT89^AαKO cells were transduced to stably express V5 tagged Aα-WT, Aα-P179R or Aα-S256F and the levels of the A subunit, C subunit and V5 was determined by western blot (FIGS. 4B and C).\nAntibodies andImmunoblotting: All antibodies used in the described studies can be found in Supplementary Table X. Proteins from whole cells were lysed in RIPA buffer (ThermoFisher Scientific) supplemented with protease and phosphatase inhibitors (Roche). Protein concentrations of cell extracts were determined using the Pierce BCA Protein Assay kit (ThermoFisher) and equal quantities of protein were separated by SDS/PAGE 12% polyacrylamide gels (Bio-Rad) and transferred to nitrocellulose membranes (Bio-Rad). […]"}
{"smiles": "Nc1nc(Cl)nc2c1ncn2[C@@H]1O[C@H](CO)[C@@H](O)[C@@H]1F", "note": "[Clofarabine]", "values": [{"measurement": "cleaved caspase 3 in mutant vs Aα-WT cells", "result": "significantly more cleaved caspase 3"}]}
